These results are taken from PubChem BioAssay (NCI).

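Where inhibition never reached the appropriate level, the endpoint shown equals the highest concentration tested. Otherwise, values were interpolated linearly from a five-concentration, 48-hour dose response in 96-well plates. The concentration for 50% growth inhibition is given as GI50. At the TGI there is no net growth.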

Among the test systems are SW-620 colon; DU-145 prostate; T-47D breast; NCI-H460 lung; OVCAR-8 ovarian; ACHN renal; UO-31 renal; COLO 205 colon; K-562 leukemia; HT29 colon.
Holding throughout (assay): NCI tumour cell line growth inhibition, 48 h

In the case of `CCCCC(O)(c1ccc(Cl)cc1)C(CN1CCOCC1)c1ccc(Cl)cc1` (stereo not given), the GI50 with SW-620 colon is 11.5 µM; in the assay with DU-145 prostate, 15.7 µM; with T-47D breast, 11.3 µM; in the assay with NCI-H460 lung it was 10.7 µM; in the assay with OVCAR-8 ovarian, 15.7 µM; with ACHN renal it was 14.4 µM. The GI50 with UO-31 renal is 12.2 µM; with COLO 205 colon, 10.8 µM; in the assay on K-562 leukemia, 12.2 µM; with HT29 colon, 4.14 µM. Besides, the TGI in the assay with SW-620 colon stood at 25.3 µM; with DU-145 prostate, 29.8 µM; with T-47D breast, 25 µM; with NCI-H460 lung it was 25.7 µM; in the assay on OVCAR-8 ovarian it was 42 µM; with ACHN renal it was 28.5 µM. Also, the TGI with UO-31 renal was found to be 26.2 µM; in the assay on COLO 205 colon, 25.5 µM; with K-562 leukemia it was 41.1 µM; in the assay on HT29 colon it was 18.2 µM.
For `OC[C@H]1CCCC1O` (stereo not given in full), the TGI in the assay with SW-620 colon, in the assay with DU-145 prostate, in the assay on T-47D breast, in the assay on NCI-H460 lung, in the assay on OVCAR-8 ovarian and in the assay with ACHN renal was more than 100 µM in each case. Also, the TGI in the assay with UO-31 renal, in the assay with COLO 205 colon, with K-562 leukemia and in the assay on HT29 colon was more than 100 µM in each case.
Take `O=C(O)C1OC(n2cc(F)c(=O)[nH]c2=O)CC1O` (stereo not given): the TGI was more than 100 µM in the assay with SW-620 colon; more than 100 µM with DU-145 prostate; more than 100 µM with T-47D breast; more than 100 µM with NCI-H460 lung; more than 100 µM in the assay with OVCAR-8 ovarian; more than 59.1 µM with ACHN renal. For the same compound, the TGI in the assay on UO-31 renal, in the assay with COLO 205 colon, in the assay on K-562 leukemia and in the assay with HT29 colon was more than 100 µM in each case.
